Laboratory results published in ChEMBL document CHEMBL5725466, “N-cyanomethylamides as inhibitors of janus kinase” (2017).

Experiments:
[1] = target: Tyrosine-protein kinase JAK2 (Homo sapiens, UniProt O60674); assay: (§1) In Vitro Assay: NCEs were screened using in vitro JAK (1, 2 and 3) kinase assay on ADP Glo platform (Promega). Fixed amount of recombinant purified human JAK (25 ng of JAK1 and 10 ng of JAK2 and JAK3 per reaction, from Life Technologies Ltd) were incubated with increasing concentration of NCEs in 1× kinase reaction buffer (40 mM Tris-Cl, pH7.5, 20 mM MgCl2, 0.1 mg/ml BSA and 50 μM DTT). Enzymatic reaction was initiated by adding a substrate cocktail containing 50 μM of ATP (final concentration) and 5 μg for JAK1 and 2.5 μg for JAK2 and JAK3 of polyGln4Tyr1 (Signal Chem) in total 25 μl of reaction in 96 well plate. The reaction was incubated at room temperature for 1 hr.After 1 hr of incubation equal volume (25 μl per reaction) of ADP Glo was added and incubated at room temperature for 40 min.This was followed by addition of kinase detection reagent (50 μl per reaction) and incubation at room temperature for 30 min. Finally, plate was read for luminescence at an integration time of 500 millisecond per well.
Sequence of Tyrosine-protein kinase JAK2 (O60674 whole entry): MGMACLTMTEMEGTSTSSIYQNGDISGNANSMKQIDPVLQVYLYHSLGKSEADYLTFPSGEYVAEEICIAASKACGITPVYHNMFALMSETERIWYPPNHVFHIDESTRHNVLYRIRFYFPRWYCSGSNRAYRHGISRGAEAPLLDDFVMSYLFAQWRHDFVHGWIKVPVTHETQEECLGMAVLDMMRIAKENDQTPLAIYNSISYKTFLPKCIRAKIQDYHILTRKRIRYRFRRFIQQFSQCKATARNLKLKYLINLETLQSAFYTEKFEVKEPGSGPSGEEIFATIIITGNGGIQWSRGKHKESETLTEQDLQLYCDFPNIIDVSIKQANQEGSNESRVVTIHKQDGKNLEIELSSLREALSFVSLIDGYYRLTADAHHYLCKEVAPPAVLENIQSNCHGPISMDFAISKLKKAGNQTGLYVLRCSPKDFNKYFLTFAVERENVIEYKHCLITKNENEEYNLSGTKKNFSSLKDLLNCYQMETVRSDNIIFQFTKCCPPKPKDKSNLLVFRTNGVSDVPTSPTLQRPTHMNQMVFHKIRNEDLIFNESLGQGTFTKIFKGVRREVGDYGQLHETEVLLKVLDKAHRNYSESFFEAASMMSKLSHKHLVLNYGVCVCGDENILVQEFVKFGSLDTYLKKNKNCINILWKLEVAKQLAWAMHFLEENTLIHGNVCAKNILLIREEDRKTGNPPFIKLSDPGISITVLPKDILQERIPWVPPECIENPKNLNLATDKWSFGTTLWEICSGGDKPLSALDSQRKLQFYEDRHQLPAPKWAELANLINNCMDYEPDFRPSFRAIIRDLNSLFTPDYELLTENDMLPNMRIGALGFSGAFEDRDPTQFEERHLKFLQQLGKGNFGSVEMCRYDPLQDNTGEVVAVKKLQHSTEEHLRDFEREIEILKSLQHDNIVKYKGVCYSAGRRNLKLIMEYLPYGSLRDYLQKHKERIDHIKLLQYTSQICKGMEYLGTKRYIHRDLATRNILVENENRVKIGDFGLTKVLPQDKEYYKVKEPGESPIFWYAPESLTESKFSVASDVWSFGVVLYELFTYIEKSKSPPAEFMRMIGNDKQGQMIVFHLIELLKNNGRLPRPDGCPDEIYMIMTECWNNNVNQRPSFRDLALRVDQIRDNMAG

[2] = target: T1, Tyrosine-protein kinase JAK3 (Homo sapiens, UniProt P52333); assay: as §1
T1 sequence (P52333 whole entry): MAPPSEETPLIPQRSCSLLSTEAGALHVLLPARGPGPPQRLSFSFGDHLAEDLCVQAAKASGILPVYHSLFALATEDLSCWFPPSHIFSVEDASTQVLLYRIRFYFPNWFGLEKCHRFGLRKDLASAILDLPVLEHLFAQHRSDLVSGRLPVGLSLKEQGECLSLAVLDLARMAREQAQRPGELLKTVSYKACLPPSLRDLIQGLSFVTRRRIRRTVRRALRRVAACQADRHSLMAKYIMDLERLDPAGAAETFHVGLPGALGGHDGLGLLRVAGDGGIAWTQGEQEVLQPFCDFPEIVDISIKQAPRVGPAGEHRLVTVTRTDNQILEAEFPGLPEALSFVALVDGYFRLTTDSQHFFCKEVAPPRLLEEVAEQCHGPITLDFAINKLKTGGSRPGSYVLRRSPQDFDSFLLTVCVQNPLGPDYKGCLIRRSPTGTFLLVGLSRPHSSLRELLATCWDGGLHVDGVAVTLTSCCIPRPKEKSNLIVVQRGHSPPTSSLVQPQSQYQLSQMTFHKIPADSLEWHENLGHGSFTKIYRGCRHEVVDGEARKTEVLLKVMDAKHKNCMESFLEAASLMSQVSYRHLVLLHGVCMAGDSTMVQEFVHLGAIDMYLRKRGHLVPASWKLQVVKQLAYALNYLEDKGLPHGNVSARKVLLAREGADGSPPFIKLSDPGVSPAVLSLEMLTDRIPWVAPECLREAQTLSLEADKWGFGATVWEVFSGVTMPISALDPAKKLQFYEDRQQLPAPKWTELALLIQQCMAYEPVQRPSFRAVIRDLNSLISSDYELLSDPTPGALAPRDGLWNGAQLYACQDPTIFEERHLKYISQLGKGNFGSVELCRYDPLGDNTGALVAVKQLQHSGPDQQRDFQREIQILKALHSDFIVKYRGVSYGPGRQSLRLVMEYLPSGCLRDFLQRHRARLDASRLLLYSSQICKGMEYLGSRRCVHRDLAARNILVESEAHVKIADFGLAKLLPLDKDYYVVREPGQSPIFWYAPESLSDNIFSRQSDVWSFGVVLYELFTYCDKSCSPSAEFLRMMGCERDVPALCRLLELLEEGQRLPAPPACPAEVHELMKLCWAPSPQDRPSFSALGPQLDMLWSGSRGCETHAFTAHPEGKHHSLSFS

[3] = target: Tyrosine-protein kinase JAK1 (Homo sapiens, UniProt P23458); assay: as §1
Sequence of Tyrosine-protein kinase JAK1 (P23458 whole entry): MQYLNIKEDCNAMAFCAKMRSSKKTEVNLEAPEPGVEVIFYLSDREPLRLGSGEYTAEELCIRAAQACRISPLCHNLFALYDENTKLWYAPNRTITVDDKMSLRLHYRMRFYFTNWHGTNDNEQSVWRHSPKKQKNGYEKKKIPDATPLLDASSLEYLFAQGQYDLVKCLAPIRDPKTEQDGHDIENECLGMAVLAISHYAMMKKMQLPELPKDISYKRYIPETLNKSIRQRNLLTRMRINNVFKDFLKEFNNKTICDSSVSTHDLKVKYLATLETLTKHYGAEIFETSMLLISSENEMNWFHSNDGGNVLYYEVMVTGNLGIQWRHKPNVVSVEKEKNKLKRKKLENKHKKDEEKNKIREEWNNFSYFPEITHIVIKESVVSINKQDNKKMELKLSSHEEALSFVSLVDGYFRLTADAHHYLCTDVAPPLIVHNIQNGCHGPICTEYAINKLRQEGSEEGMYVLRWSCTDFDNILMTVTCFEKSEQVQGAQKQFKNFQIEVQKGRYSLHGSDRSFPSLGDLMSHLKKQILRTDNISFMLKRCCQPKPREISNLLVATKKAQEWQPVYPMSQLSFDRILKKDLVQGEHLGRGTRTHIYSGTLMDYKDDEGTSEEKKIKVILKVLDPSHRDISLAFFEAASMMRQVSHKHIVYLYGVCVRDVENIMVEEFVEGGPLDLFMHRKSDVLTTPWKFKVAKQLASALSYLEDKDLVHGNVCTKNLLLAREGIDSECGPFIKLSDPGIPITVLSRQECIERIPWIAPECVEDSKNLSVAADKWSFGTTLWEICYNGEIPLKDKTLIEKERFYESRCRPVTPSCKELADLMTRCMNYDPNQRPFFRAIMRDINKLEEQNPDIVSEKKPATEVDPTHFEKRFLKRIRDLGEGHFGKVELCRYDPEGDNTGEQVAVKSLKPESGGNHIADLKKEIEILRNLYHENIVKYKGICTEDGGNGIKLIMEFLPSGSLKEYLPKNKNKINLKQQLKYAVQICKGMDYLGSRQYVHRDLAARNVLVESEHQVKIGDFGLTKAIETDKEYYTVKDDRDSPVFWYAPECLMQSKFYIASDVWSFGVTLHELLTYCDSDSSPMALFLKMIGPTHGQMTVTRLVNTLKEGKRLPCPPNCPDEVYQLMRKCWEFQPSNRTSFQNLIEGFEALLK

N#CCNC(=O)c1ccc(-c2ccnc(Nc3ccc(N4CCC(N5CCOCC5)CC4)cc3)n2)cc1
IC50 [1]: 6.6 nM | IC50 [2]: 62.3 nM | IC50 [3]: 11.7 nM

N#CCNC(=O)c1ccc(-c2nc(Nc3ccc(N4CCC(N5CCOCC5)CC4)cc3)ncc2F)cc1
IC50 [1]: 4.9 nM | IC50 [2]: 16.6 nM | IC50 [3]: 6.7 nM

N#CCNC(=O)c1ccc(-c2ccnc(Nc3ccc(N4CCC(C5=NCCN5)CC4)cc3)n2)cc1
IC50 [1]: 20 nM | IC50 [2]: 124 nM | IC50 [3]: 13 nM
